Non-standard residues stand in square brackets, D forms with d. Nle = CCCC[C@H](N)C(=O)O
Legend:
Assay type in all cases: cell-based, human
melanocytes strain 1505b [1] = experiment: cAMP levels, radioimmunoassay, strain 1505b; settings: 1 nM, 45 min, 0.1 mM IBMX
Description: Dose-response experiments were carried out on three melanocytic strains, namely strains 1513c, 1505b and 105c melanocytes were treated with 1 pM-10 nM CUV9900 or NDP-MSH, or with 0.1-10 nM MSH for 45 minutes in the presence of 0.1 mM isobutyl methylxanthine (IBMX). The results obtained from strain 1513c are shown in FIG. 3, the results obtained from strain 1505b are shown in FIG. 5a and the results obtained from strain 105c are shown in FIG. 5b. The strains 1505b and 1513c were obtained from the same human adult while the strain 105c was obtained from another human adult. Cyclic AMP is the second messenger for the melanocortin-1 receptor, and assessment is usually performed indicating cellular activity reflective of melanogenesis. Cyclic AMP levels were determined using ^125I-labeled radioimmunoassay kit (Perkin Elmer, Waltham, Mass.), in human melanocytes that were treated with 0 (control), 0.1-10.0 nM α-MSH, or 0.001-10 nM NDP-MSH or 0.001-10.0 nM CUV 9900 for […]. in the presence of 0.1 mM IBMX, a phosphodiesterase inhibitor to prevent cAMP degradation. Triplicate wells were included in each group, and duplicate samples from each well were assayed for cAMP levels. Each data point is the mean percent of control of 6 determinations/group±S.E.

melanocyte strain 1505b [2] = experiment: Tyrosinase activity as a measure of stability / residual effect, strain 1505b
Description: To determine the residual effect of CUV9900, as compared to NDP-MSH and α-MSH, on tyrosinase activity, melanocytes were treated with either CUV9900 or NDP-MSH at the concentrations previously described for a total of 3 days. Tyrosinase activity was measured at the end of the 3 days of treatment, and 2 and 4 days after maintenance of the melanocytes in the complete absence of any treatment.
(§1) With continued reference to FIGS. 7, 8 and 9, to determine the stability of CUV9900 versus that of NDP-MSH and α-MSH, melanocytes were treated with 1 nM of each peptide, namely with CUV9900, NDP-MSH and α-MSH, for a total of 6 days, or with 1 nM peptides that were incubated for 5 hours at 37° C. prior to addition to the cultures, every other day, for a total of 6 days. Tyrosinase activity was measured at the end of treatment. In the experiments, cell number represents the mean percent of control of 3 determinations/group±SE, and tyrosinase activity data represent the mean percent of control of 6 determinations±S.E. It should be noted that for the sake of reproducibility the experiment of strain 1513c of FIG. 9 was performed once more 6 months later than the experiment of FIG. 7.
Melanocytes were treated for 3 days with the designated concentrations of CUV9900, NDP-MSH, or MSH, then maintained in absence of peptides for 4 days. Tyrosinase activity was determined 3 days after treatment.
Tyrosinase activity as a measure of stability is shown in Tables 4 to 6 below, wherein Table 4 is based on data derived from FIG. 7, Table 5 is based on data derived from FIG. 9, and Table 6 is based on data derived from FIG. 8: […]

melanocytes strain 1505b [3] = experiment: Tyrosinase activity dose-response, strain 1505b
Description: Dose-response experiments were carried out on another adult strain 102b which is shown in FIG. 6 and on the strain 1505b which is a melanocyte strain: melanocytes were treated with 0.001-10 nM CUV9990 or NDP-MSH, or 0.1-10 nM MSH for a total of 6 days, with the culture medium changed and fresh peptide added every other day. Cell numbers as well as tyrosinase activity were then determined. Tyrosinase activity was calculated first at activity/10^6 cells, and then as % of control. Twenty-four hours prior the end of the experiment, melanocytes received […] (0.7 μCi/ml medium). The conditioned medium from each dish was collected to be assayed for tyrosinase activity, and the cell numbers were determined using a Coulter Counter. Triplicate dishes were included in each group, and duplicate samples from each dish were assayed for tyrosinase activity. Each data point is the mean percent of control of 6 determinations/group±S.E.

melanocyte strain 1505b [4] = experiment: Cell proliferation as a measure of stability, strain 1505b
melanocytic strain 1505b = experiment: UV-induced generation of hydrogen peroxide (luminol), strain 1505b; settings: 1 nM
From the text: With reference to FIGS. 10 and 11, melanocytes were irradiated with a bank of FS 20 lamps, with 75% emission in the UVB, and 25% emission in the UVA spectra, with peak emission at 313 nm wavelength. Any emission of UVC rays from the UV source (FS 20 lamps) was blocked by Kodacel filter. Prior to irradiation, the culture medium was replaced by PBS, which was removed after UV exposure, and fresh medium added.
Melanocytes were irradiated with 105 mJ/cm^2 UV, and treated immediately while in PBS with 0, 1 nM α-MSH or 1 nM CUV9900. Generation of hydrogen peroxide, representative of reactive oxygen species (ROS), was determined by measuring the luminescence of luminol at 0, 30, and 45 min after UV exposure. Triplicate dishes were included in each group, and duplicate samples from each dish were used for measurement of hydrogen peroxide at each time point. Each data point represents the mean of 6 determinations/group±S.E.
In the melanocytic strain 1505b of FIG. 10 and melanocytic strain 103c of FIG. 11, hydrogen peroxide generation was assessed at 0, 30 and 45 minutes after UV irradiation.

melanocyte strain 1513c = experiment: Cell proliferation as a measure of stability, strain 1513c
Description: as §1
Peptides were incubated at 37 degrees Celsius for 5 hours and then split into groups. Cell proliferation was a measure of stability, whereby the experiments on strain 1513c were divided in period 1 and 2 under standard conditions.
Cell proliferation as a measure of stability is shown in Tables 1 to 3 below, wherein Table 1 is based on data derived from FIG. 7, Table 2 is based on data derived from FIG. 9, and Table 3 is based on data derived from FIG. 8: […]

superior tyrosinase activity in comparison to MSH (melanocyte strain 1505b [2]): 18.7%
superior tyrosinase activity in comparison to NDP-MSH (melanocyte strain 1505b [2]): 32.1%
residual effects on tyrosinase activity 4 days after peptide removal, CUV9900 vs MSH (melanocyte strain 1505b [2]; 0.1 nM CUV9900 vs 1 nM MSH): equal
effect on tyrosinase activity, comparison (melanocytes strain 1505b [3]): equivalent to that of NDP-MSH
minimal effective dose, tyrosinase activity (melanocytes strain 1505b [3]; 6 days treatment): 1 pM
Substance: Ac-Nle-Glu His-D-Phe-Arg-Trp-NH2 (Ac-[Nle]EH[dF]RW-NH2; SMILES CCCC[C@H](NC(C)=O)C(=O)N[C@@H](CCC(=O)O)C(=O)N[C@@H](Cc1c[nH]cn1)C(=O)N[C@H](Cc1ccccc1)C(=O)N[C@@H](CCCNC(=N)N)C(=O)N[C@@H](Cc1c[nH]c2ccccc12)C(N)=O) [CUV9900, hexapeptide alpha-MSH analogue]
cAMP, potency comparison (melanocytes strain 1505b [1]): more potent than MSH
more stable in comparison to MSH (cell proliferation) (melanocyte strain 1505b [4]): 2.6%
more stable than NDP-MSH (cell proliferation) (melanocyte strain 1505b [4]): 10.16%
Cell proliferation (cell number), column 2 (melanocyte strain 1505b [4]; 1 nM): 120% of control
Cell proliferation (cell number), column 3 (melanocyte strain 1505b [4]; 1 nM): 108% of control
hydrogen peroxide generation, comparison (melanocytic strain 1505b; 45 minutes after irradiation): lower hydrogen peroxide generation in comparison with both NDP-MSH and MSH
UV-induced hydrogen peroxide generation (melanocytic strain 1505b; strain 1505b, 105 mJ/cm^2 UV, 0, 30 and 45 minutes after irradiation): significant reduction of UV-induced hydrogen peroxide generation
more stable than MSH (cell proliferation) (melanocyte strain 1513c; strain 1513c): 3.4%
more stable than NDP-MSH (cell proliferation) (melanocyte strain 1513c; strain 1513c): 0.65%
Cell proliferation (cell number), Mean (melanocyte strain 1513c; strain 1513c [2], mean): 119.9% of control

Reference: patent publication US20130331331A1, “HEXAPEPTIDE WITH IMPROVED ACTIVITY IN THE REPAIR OF CELLULAR DNA OF DERMAL CELLS” (priority 2011, published 2013)
